Experimental data reported in patent US5407932A, “Quinolone derivatives and antibacterial agents containing the same” (Wakunaga Seiyaku Kabushiki Kaisha, priority 1989, dated 1995).
Converted amounts (≈) assume the structure as drawn.

Experiments:
[1] = tested on: P. aeruginosa (IFO 3445); test: Minimum inhibitory concentration, standard method of the Japan Society of Chemotherapy; format: cell-based; settings: Pseudomonas aeruginosa, IFO3445
Description: (§1) With respect to certain representative compounds among the compounds [I] of the present invention, their minimum inhibitory concentrations (MIC; μg/ml) were measured in accordance with the standard method established by the Japan Society of Chemotherapy [CHEMOTHERAPY, 29(1), 76-79 (1981)]. The results are summarized in Table 1, in which the compound numbers are as shown in examples.

[2] = tested on: S. aureus 209 P (IFO 12732); test: as above; format: cell-based; settings: Staphylococcus aureus, IFO12732
Description: as §1

[3] = tested on: E. coli NIH JC-2 (IFO 12734); test: as above; format: cell-based; settings: Escherichia coli, IFO12734
Description: as §1

[4] = tested on: mice; test: Interaction with fenbufen and toxicological study (coadministration test with fenbufen); format: in vivo
Description: Fenbufen and the quinolone compounds were each diluted with a solution of 0.5% methylcellulose.
A dose of 200 mg/kg of fenbufen was administered by oral route to groups of 10 mice (female, ICR, 18-23 g) 90 minutes before administration of the quinolone compounds by oral route, at a dose of 500 mg/kg. […] Following the 24 hours number of survival animals was noted.

[5] = Partition coefficient, phosphate buffer/n-octanol; format: physicochemical; settings: n-octanol/50 mm phosphate buffer; 50 mM phosphate buffer (pH 7.4, μ=0.15)/n-octanol
Description: Following the method proposed by Akira Tsuji et al. in Antimicrob. Agents Chemother., 32, 190-194 (1988), 50 mM phosphate buffer (pH 7.4, μ=0.15)/n-octanol partition coefficients were measured.

MIC [1] [mg/L]	MIC [2] [mg/L]	MIC [3] [mg/L]	Compound	Induction of convulsion, number of positive mice ([4]; mouse, in vivo)	Mortality, number of dead mice ([4]; mouse, in vivo)	logD [5]	Mortality, number of dead mice ([4]; quinolone 500 mg/kg oral, 90 min after fenbufen 200 mg/kg oral, 24 hours)	Induction of convulsion, number of positive mice ([4]; quinolone 500 mg/kg oral, 90 min after fenbufen 200 mg/kg oral, during two hours)
3.13 (≈ 8.91 µM)	1.56 (≈ 4.44 µM)	0.39 (≈ 1.11 µM)	NC1CN(c2c(F)cc3c(=O)c(C(=O)O)cn(C4COC4)c3c2F)C1 [Compound 48]					
3.13 (≈ 7.96 µM)	1.56 (≈ 3.97 µM)	0.39 (≈ 0.991 µM)	CCNC1CCN(c2c(F)cc3c(=O)c(C(=O)O)cn(C4COC4)c3c2F)C1 (centres unmarked) [Compound 45]					
1.56 (≈ 4.27 µM)	1.56 (≈ 4.27 µM)	0.39 (≈ 1.07 µM)	NC1CCN(c2c(F)cc3c(=O)c(C(=O)O)cn(C4COC4)c3c2F)C1 (centres unmarked) [Compound 18]					
6.25 (≈ 15.8 µM)	3.13 (≈ 7.92 µM)	1.56 (≈ 3.95 µM)	CO[C@@H]1CN(c2c(F)cc3c(=O)c(C(=O)O)cn(C4COC4)c3c2F)C[C@H]1N (relative stereo) [Compound 85]					
12.5 (≈ 30.8 µM)	1.56 (≈ 3.85 µM)	1.56 (≈ 3.85 µM)	COc1c(N2CCC(N(C)C)C2)c(F)cc2c(=O)c(C(=O)O)cn(C3COC3)c12 (centres unmarked) [Compound 77]					
3.13 (≈ 7.94 µM)	0.1 (≈ 0.254 µM)	0.78 (≈ 1.98 µM)	NCC1CCN(c2c(F)c(N)c3c(=O)c(C(=O)O)cn(C4COC4)c3c2F)C1 (centres unmarked) [Compound 32]					
3.13	0.78	0.78	Cl.N=CN1CCN(c2c(F)c(N)c3c(=O)c(C(=O)O)cn(C4COC4)c3c2F)CC1 [Compound 108, 5-Amino-6,8-difluoro-7-(4-formimidoylpiperazin-1-yl)-1-(oxetan-3-yl)-1,4-dihydro-4-oxoquinoline-3-carboxylic acid hydrochloride]					
6.25 (≈ 15.3 µM)	0.2 (≈ 0.491 µM)	0.78 (≈ 1.91 µM)	CCNCC1CCN(c2c(F)cc3c(=O)c(C(=O)O)cn(C4COC4)c3c2F)C1 (centres unmarked) [Compound 47]					
12.5 (≈ 34.6 µM)	0.39 (≈ 1.08 µM)	3.13 (≈ 8.66 µM)	NCC1CCN(c2cc3c(cc2F)c(=O)c(C(=O)O)cn3C2COC2)C1 (centres unmarked) [Compound 38]					
3.13 (≈ 7.57 µM)	0.2 (≈ 0.484 µM)	0.78 (≈ 1.89 µM)	Nc1c(F)c(N2Cc3ccccc3C2)c(F)c2c1c(=O)c(C(=O)O)cn2C1COC1 [Compound 30]					
1.56 (≈ 4.13 µM)	0.2 (≈ 0.53 µM)	0.39 (≈ 1.03 µM)	COc1c(N2CCC(N)C2)c(F)cc2c(=O)c(C(=O)O)cn(C3COC3)c12 (centres unmarked) [Compound 76, 7-(3-Aminopyrrolidin-1-yl)-6-fluoro-8-methoxy-1-(oxetan-3-yl)-1,4-dihydro-4-oxoquinoline-3-carboxylic acid]					
0.78 (≈ 1.98 µM)	0.2 (≈ 0.507 µM)	0.1 (≈ 0.254 µM)	C[C@@H]1CN(c2c(F)c(N)c3c(=O)c(C(=O)O)cn(C4COC4)c3c2F)C[C@H]1N (relative stereo) [Compound 101]					
			C[C@H]1CN(c2c(F)c(N)c3c(=O)c(C(=O)O)cn(C4COC4)c3c2F)C[C@H]1N.O=S(=O)(O)O (single isomer, unassigned) [Compound 117, 5-Amino-7-{(-)-cis-3-amino-4-methylpyrrolidin-1-yl}-6,8-difluoro-1-(oxetan-3-yl) -1,4-dihydro-4-oxoquinoline-3-carboxylic acid sulfuric acid salt]				0/10	0/10
1.56 (≈ 3.82 µM)	0.78 (≈ 1.91 µM)	0.2 (≈ 0.49 µM)	CN[C@@H]1CN(c2c(F)c(N)c3c(=O)c(C(=O)O)cn(C4COC4)c3c2F)C[C@@H]1C (relative stereo) [Compound 94]					
3.13 (≈ 7.43 µM)	0.78 (≈ 1.85 µM)	0.39 (≈ 0.925 µM)	CC(=N)N1CCN(c2c(F)c(N)c3c(=O)c(C(=O)O)cn(C4COC4)c3c2F)CC1 [Compound 109]					
3.13 (≈ 8.25 µM)	0.2 (≈ 0.527 µM)	1.56 (≈ 4.11 µM)	NCC1CCN(c2c(F)cc3c(=O)c(C(=O)O)cn(C4COC4)c3c2F)C1 (centres unmarked) [Compound 20]					

Compound	MIC [1] [mg/L]	MIC [2] [mg/L]	MIC [3] [mg/L]	Induction of convulsion, number of positive mice ([4]; mouse, in vivo)	Mortality, number of dead mice ([4]; mouse, in vivo)	logD [5]	Mortality, number of dead mice ([4]; quinolone 500 mg/kg oral, 90 min after fenbufen 200 mg/kg oral, 24 hours)	Induction of convulsion, number of positive mice ([4]; quinolone 500 mg/kg oral, 90 min after fenbufen 200 mg/kg oral, during two hours)
O=C(O)c1cn(C2COC2)c2c(F)c(N3CCNCC3)c(F)cc2c1=O [Compound 12]	1.56 (≈ 4.27 µM)	1.56 (≈ 4.27 µM)	0.2 (≈ 0.547 µM)					
C[C@H]1CN(c2c(F)c(N)c3c(=O)c(C(=O)O)cn(C4COC4)c3c2F)C[C@H]1N (relative stereo) [Compound 103]	0.39 (≈ 0.989 µM)	0.2 (≈ 0.507 µM)	0.1 (≈ 0.254 µM)					
CN1CCN(c2c(F)c(N)c3c(=O)c(C(=O)O)cn(C4COC4)c3c2F)CC1 [Compound 29]	0.78 (≈ 1.98 µM)	0.78 (≈ 1.98 µM)	0.1 (≈ 0.254 µM)	0/10	0/10	-0.333		
